Measurements: patent US20240279275A1, “HEXAPEPTIDE DERIVATIVE AND COSMETIC COMPOSITION OR PHARMACEUTICAL COMPOSITION AND USE THEREOF” (SHENZHEN WINKEY TECHNOLOGY CO., LTD, priority 2021, published 2024)
Residues, ends and D or L forms follow the SMILES beside them. *: point of attachment. Caffeoyl = O=C(/C=C/c1ccc(O)c(O)c1)*; Galloyl = O=C(c1cc(O)c(O)c(O)c1)*

Tests used:
[1] = system: NIH3T3 cells; test: Cell proliferation assay (MTT); format: cell-based, Mouse; settings: 72 h
Source text: (§1) Mouse skin fibroblasts (NIH3T3) were purchased from the Shanghai Cell Bank of China Center for Type Culture Collection under the Chinese Academy of Sciences.
• CA, at a test concentration of 1 ppm, 10 ppm, 100 ppm, and 500 ppm, respectively; • GA, at a test concentration of 1 ppm, 10 ppm, 100 ppm, and 500 ppm, respectively; • the peptide H-Gly-Pro-Gln-Gly-Pro-Gln-NH2 (hereinafter referred to as the reference peptide), at a test concentration of 1 ppm, 10 ppm, 100 ppm, and 500 ppm, respectively; • the peptide (2) CA-Gly-Pro-Gln-Gly-Pro-Gln-NH2, at a test concentration of 1 ppm, 10 ppm, 100 ppm, and 500 ppm, respectively; • the peptide (4) GA-Gly-Pro-Gln-Gly-Pro-Gln-NH2, at a test concentration of 1 ppm, 10 ppm, 100 ppm, and 500 ppm, respectively.
The purpose of this experiment is to evaluate cell viability 72 h after administration and determine the effect of the peptide derivatives of the present invention on cell proliferation by using NIH3T3 cells as the experiment subject.
NIH3T3 cells in good exponential growth phase were taken. A 0.25% trypsin digestion solution was added so that digestion allowed the adherent cells to fall off, counting (1−4)×10^5 cells/mL, which were prepared into a cell suspension.
The cell suspension was inoculated on a 96-well plate with 200 μL/well, and cultured in a constant-temperature CO2 incubator for 24 h.
After changing the medium, the cell suspension was added to drug groups and the control group, respectively, each of which was placed in 20 μL/well and incubated in a 37° C., 5% CO2 incubator for 72 h.
Then 20 μL 5 mg/ml MTT was added to each well and the incubation was continued for 4 h in the 37° C., 5% CO2 incubator. The original solution was removed and 150 μL/well DMSO was added. The plate was placed on a plate shaker for shaking for 5 min. A microplate reader was used to determine the OD value of each well at a wavelength of 570 nm, and calculate the cell viability.
Cell viability=[OD(administration well)−OD(zero adjustment well)]/[OD(control well)−OD(zero adjustment well)]×100%

[2] = system: NIH3T3 cells; test: β-galactosidase staining assay, UV photoaging model; format: cell-based, Mouse; settings: after UV irradiation, 24 h
Source text: as §1
• CA, at a test concentration of 1 ppm, 10 ppm, and 100 ppm, respectively; • GA, at a test concentration of 10 ppm; • the reference peptide, at a test concentration of 1 ppm, 10 ppm, and 100 ppm, respectively; • the peptide (2), at a test concentration of 1 ppm, 10 ppm, and 100 ppm, respectively; • the peptide (4) at a test concentration of 10 ppm. 3.
The purpose of this experiment is to test the impact of the peptide derivatives of the present invention on cell senescence using a β-galactosidase staining assay to evaluate the anti-photoaging capability.
(§2) The frozen NIH3T3 cells were cultured and passaged at a ratio of 1:2 to about the 5th generation, and the cells in better growth were selected as experiment subjects.
The cells were inoculated into a 96-well plate at 10,000 cells/well, and when the cells were approximately 80% full, a UV photoaging model was established. In the control group, a PBS solution was added, supplemented with the culture medium to 200 μL, while no UV irradiation was performed; For the UV group and the drug group, a proper amount of PBS was added to wash the culture repeatedly until colorless, followed by adding 50 μL PBS and irradiating under an 80 J/cm^3 UV light. The distance between the light source and the culture bottle was 15 cm. After irradiation, the PBS was removed. In the UV group, a PBS solution and the culture medium were added to 200 μL; in the drug group, the culture medium and the drug diluted in a certain ratio were added to 200 μL. The control group, the UV group, and the drug group were further incubated in a 37° C., 5% CO2 incubator for 24 h. The culture medium was removed. 100 μL 4% paraformaldehyde was added to each well and fixed at room temperature for 15 min, followed by washing with PBS three times, adding a β-galactosidase staining agent (X-gal 0.01%, potassium ferricyanide 0.16%, ferrocyanide potassium 0.02%) 50 μL/well, sealing with plastic wrap, and staining in a 37° C. incubator in the dark for 12 h. The staining solution was removed. Each group was washed with PBS three times, and photographed under a light microscope. The number of cells in the field of view and the number of stained cells were counted.
UV irradiation can cause cell senescence, and the cytoplasm of senescent cells are stained blue-green by the β-galactosidase agent (shown as the dark part in the black and white images). This experiment evaluates the anti-photoaging capability of the peptide derivatives of the present invention through staining morphology images and senescent cell staining statistics.

[3] = system: NIH3T3 cells; test: ROS staining assay, UV photoaging model; format: cell-based, Mouse; settings: after UV irradiation, 24 h, ROS fluorescent probe
Source text: as §1
• CA, at a test concentration of 1 ppm; • GA, at a test concentration of 10 ppm; • the reference peptide, at a test concentration of 1 ppm and 10 ppm, respectively; • the peptide (2), at a test concentration of 1 ppm; • the peptide (4), at a test concentration of 10 ppm.
Another indication of aging is an increase in intracellular oxidative stress levels, that is, an increase in ROS, and aging can be slowed down by alleviating oxidative stress. The purpose of this experiment is to test the impact of the peptide derivatives of the present invention on oxidative stress levels using ROS staining assay, thereby evaluating the antioxidant effect.
as §2
The cells were inoculated into a 96-well plate at 10,000 cells/well, and when the cells were approximately 80% full, a UV photoaging model was established. In the control group, a PBS solution was added, supplemented with the culture medium to 200 μL, while no UV irradiation was performed; For the UV group and the drug group, a proper amount of PBS was added to wash the culture repeatedly until colorless, followed by adding 50 μL PBS and irradiating under an 80 J/cm^3 UV light. The distance between the light source and the culture bottle was 15 cm. After irradiation, the PBS was removed. In the UV group, a PBS solution and the culture medium were added to 200 μL; in the drug group, the culture medium and the drug diluted in a certain ratio were added to 200 μL. The control group, the UV group, and the drug group were further incubated in a 37° C., 5% CO2 incubator for 24 h.
The culture medium was removed. Each group was stained according to the ROS probe instructions for 20 min and was observed under a fluorescence microscope.

[4] = cited from earlier work
[5] = 500 ppm, compared with the control group
[6] = test concentrations 1 ppm to 100 ppm

Compound | effect on NIH3T3 cell viability / toxicity [1, 5] | proportion of senescent cells (β-galactosidase staining) [2, 6] | ROS level per unit cells ([3]; 1 ppm) | solubility in cold water [4] | effect on NIH3T3 cell viability / toxicity ([1]; 100 ppm, compared with the control group) | proportion of senescent cells (β-galactosidase staining) ([2]; 10 ppm) | ROS level per unit cells ([3]; 10 ppm) | toxic effect on NIH3T3 cells ([1]; high concentrations) | effect on NIH3T3 cell viability ([1]; 10 ppm to 500 ppm, compared with the control group) | solubility in water ([4]; water)
O=C(O)C=Cc1ccc(O)c(O)c1 [CA, 3,4-dihydroxycinnamic acid] | significant toxicity | unable to reduce the proportion of senescent cells | reduced the ROS level per unit cells to a certain extent | slightly soluble | – | – | – | – | – | –
O=C(O)c1cc(O)c(O)c(O)c1 [GA, 3,4,5-trihydroxybenzoic acid] | significant toxicity | – | – | insoluble | significant toxicity | unable to reduce the proportion of senescent cells | had a certain effect in reducing ROS | – | – | –
NC(=O)CCC(NC(=O)C1CCCN1C(=O)CNC(=O)C(CCC(N)=O)NC(=O)C1CCCN1C(=O)CNC(=O)c1cc(O)c(O)c(O)c1)C(N)=O (stereo not drawn) [peptide (4), GA-Gly-Pro-Gln-Gly-Pro-Gln-NH2] (Galloyl-GPQGPQ-NH2; configuration not given here) | – | – | – | – | – | reduced the proportion of senescent cells | more significantly reduced the expression of ROS per unit cells | did not have a toxic effect | – | –
NC(=O)CCC(NC(=O)C1CCCN1C(=O)CNC(=O)C(CCC(N)=O)NC(=O)C1CCCN1C(=O)CNC(=O)/C=C/c1ccc(O)c(O)c1)C(N)=O (stereo not drawn) [peptide (2), CA-Gly-Pro-Gln-Gly-Pro-Gln-NH2] (Caffeoyl-GPQGPQ-NH2; configuration not given here) | significantly improve cell viability | significantly reduced the proportion of senescent cells | significantly reduced the expression of ROS per unit cells | – | – | – | – | – | – | –
H-Gly-Pro-Gln-Gly-Pro-Gln-NH2 (H-GPQGPQ-NH2) [reference peptide, collagen peptide of EP1406589B1] | – | unable to reduce the proportion of senescent cells | failed to reduce the ROS level per unit cells | – | – | – | had a certain effect in reducing ROS | – | improved cell viability | good solubility in water
